This note sets out measurements from patent publication US20240327417A1, “HETEROCYCLIC COMPOUNDS” (BeiGene Switzerland GmbH, priority 2021, published 2024).

Assay [1] addresses T1, Full length DGKζ (in-house protein M1-V929) (Homo sapiens, UniProt Q13574).
T1 construct: His (N); TEV cleavage site (N); made in house; host or cells: Sf9 insect cells (baculovirus, Bac-to-Bac)
Put plainly: Biochemical DGK IC50 assay (ADP-Glo, lipid micelle substrate), DGKζ. The note with it: 0.5 nM enzyme, 140 μM ATP, 80 μM DAG, 1 hour preincubation, 1 hour reaction, room temperature, read-out: IC50s for DGKζ. Here is the method: (§1) Enzymatic reactions of DGKζ, DGKα and DGKδ were performed using ADP-Glo assay with lipid micelle substrate. […] Full length DGKα (D21-10BG, SignalChem) and full length DGKδ (D23-10G, SignalChem) were purchased. Lipid micelle was prepared by dissolving DAG (Sigma, 317505-10MG) and PS (Sigma, P7769-100MG) with chloroform which was firtherly removed by rotary evaporation. The obtained residue was resuspended in buffer containing 25 mM HEPES pH 7.0, 0.5 mM EDTA and 160 mM Octyl β-D glucopyranoside by vigorous mixing and ultrasonic (IID, Scientz).
(§2) The inhibition activities testing for the compound disclosed herein were carried out at room temperature in assay buffer containing 50 mM HEPES, 10 mM MgCl2, 0.01% BSA, 0.1 mM Na3VO4, 0.005% Tween-20 and 0.01 mM CaCl2. Compounds in DMSO were dispensed into wells of a black 384 well plate (Corning 4514) using D300e digital dispenser (Tecan). The ranges of compounds final concentration were 1.55˜10000 nM or 23.3˜150000 nM. 3 μL 2× enzyme solution was added to wells. […] After 1 hour reaction, 5 μL ADP-Glo reagent (Promga V9101) was added and incubated for 40 minutes. 10 μL Kinase Detection reagent was added and incubated for 30 minutes. Luminescence was measured on a microplate reader (PHERAstar FSX, BMG labtech). The IC50s are calculated based on inhibition of enzyme activity in the presence of increasing concentrations of compounds.
Human His-TEV-DGK-zeta-pFastBac1 and human baculovirus samples was generated using the Bac-to-Bac baculovirus expression system (Invitrogen) according to the manufacturer's protocol. The DNA used for expression of DGK-zeta, have SEQ ID Nos: 1. Baculovirus amplification was achieved using infected SF9 cells at 1:2000 virus/cells ratios, and grown for 96 hours at 27° C. post-transfected.
The expression scaled up for each protein was carried out in the […] from CORNING. 4 L of 3×10^6 cells/mL Sf9 cells (Expression System, Invitrogen) grown in SF900™ II SFM insect medium (Expression System) was infected with virus stock at 1:200 virus/cells ratio, and grown for 48 hours at 27° C. post-transfection. The infected cell culture was harvested by centrifugation at 6000 rpm for 15 min 4° C. in a SORVALL LYNX6000 centrifuge. The cell pellets were stored at −80° C.
Full length human DGKζ produced as described above, was purified from Sf9 baculovirus-infected insect cell paste. The cells were lysed using sonication method, and the lysates were clarified by centrifugation.

In assay [2] the target is T2, Full length DGKα (D21-10BG, SignalChem) (Homo sapiens, UniProt P23743).
T2 construct: Full length DGKα (D21-10BG, SignalChem); purchased SignalChem D21-10BG
T2 sequence (P23743 whole entry): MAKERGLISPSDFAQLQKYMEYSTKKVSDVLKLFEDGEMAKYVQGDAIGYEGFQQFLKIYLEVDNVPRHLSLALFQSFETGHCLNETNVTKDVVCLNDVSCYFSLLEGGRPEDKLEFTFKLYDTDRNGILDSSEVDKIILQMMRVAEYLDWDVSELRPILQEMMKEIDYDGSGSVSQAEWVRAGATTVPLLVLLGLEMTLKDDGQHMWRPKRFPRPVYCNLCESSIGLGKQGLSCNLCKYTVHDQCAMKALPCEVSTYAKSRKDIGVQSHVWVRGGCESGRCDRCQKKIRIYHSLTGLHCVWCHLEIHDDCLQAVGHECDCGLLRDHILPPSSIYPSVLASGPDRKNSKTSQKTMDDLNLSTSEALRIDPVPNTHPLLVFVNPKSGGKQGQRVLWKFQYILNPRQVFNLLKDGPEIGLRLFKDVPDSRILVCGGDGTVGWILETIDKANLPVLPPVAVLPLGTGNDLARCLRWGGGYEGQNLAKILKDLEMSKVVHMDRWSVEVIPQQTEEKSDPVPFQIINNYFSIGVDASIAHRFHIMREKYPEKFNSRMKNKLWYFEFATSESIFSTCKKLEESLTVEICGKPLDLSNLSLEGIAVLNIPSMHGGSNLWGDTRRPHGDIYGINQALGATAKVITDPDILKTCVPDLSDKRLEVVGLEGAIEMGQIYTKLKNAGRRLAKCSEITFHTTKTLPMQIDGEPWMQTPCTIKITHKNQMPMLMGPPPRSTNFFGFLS
As to the kind of experiment: Biochemical DGK IC50 assay (ADP-Glo, lipid micelle substrate), DGKα. The note with it: 7.5 nM enzyme, 140 μM ATP, 80 μM DAG, 1 hour preincubation, 1 hour reaction, room temperature, read-out: IC50s for DGKα. As for the experimental part: as §1, §2

T1 sequence (Q13574 1-929 isoform Q13574-4): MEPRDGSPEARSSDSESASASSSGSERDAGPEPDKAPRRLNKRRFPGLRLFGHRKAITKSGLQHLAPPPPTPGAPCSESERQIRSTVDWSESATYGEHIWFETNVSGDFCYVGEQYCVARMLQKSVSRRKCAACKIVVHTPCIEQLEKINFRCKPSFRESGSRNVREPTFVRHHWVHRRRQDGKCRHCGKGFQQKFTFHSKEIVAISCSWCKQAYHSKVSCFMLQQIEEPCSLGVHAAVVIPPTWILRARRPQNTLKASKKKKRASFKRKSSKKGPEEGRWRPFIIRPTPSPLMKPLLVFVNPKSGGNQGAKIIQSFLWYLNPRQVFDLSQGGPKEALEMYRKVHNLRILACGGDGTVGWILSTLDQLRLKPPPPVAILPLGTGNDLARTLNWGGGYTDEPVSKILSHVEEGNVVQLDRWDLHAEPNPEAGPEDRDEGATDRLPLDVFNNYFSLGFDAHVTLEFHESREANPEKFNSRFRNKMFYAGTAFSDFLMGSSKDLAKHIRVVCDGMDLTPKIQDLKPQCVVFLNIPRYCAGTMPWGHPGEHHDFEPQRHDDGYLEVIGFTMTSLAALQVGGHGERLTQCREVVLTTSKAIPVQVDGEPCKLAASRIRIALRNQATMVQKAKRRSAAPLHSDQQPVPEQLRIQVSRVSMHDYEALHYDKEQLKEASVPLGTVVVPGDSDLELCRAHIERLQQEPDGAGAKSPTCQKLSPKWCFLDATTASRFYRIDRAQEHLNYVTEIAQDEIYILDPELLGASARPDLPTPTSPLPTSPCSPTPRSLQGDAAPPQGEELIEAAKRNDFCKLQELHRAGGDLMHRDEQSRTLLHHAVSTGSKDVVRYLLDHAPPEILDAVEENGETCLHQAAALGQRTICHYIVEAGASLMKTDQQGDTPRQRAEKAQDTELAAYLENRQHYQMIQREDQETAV

Turning to `COc1cnc2ccc(C(C)N3C[C@H](C)N(c4cc(=O)n(C)n5cc(CC#N)nc45)C[C@H]3C)cc2n1` (stereo partly drawn) [Compound A20, 2-(8-((2S,5R)-4-(1-(3-methoxyquinoxalin-6-yl)ethyl)-2,5-dimethylpiperazin-1-yl)-5-methyl-6-oxo-5,6-dihydroimidazo[1,2-b]pyridazin-2-yl)acetonitrile], the IC50 in assay [1] was 18 nM; in assay [2], 1020 nM.
For `CCc1nc2ccc(C(C)N3C[C@H](C)N(c4cc(=O)n(C)n5cc(CC#N)nc45)C[C@H]3CC)cc2s1` (single isomer, unassigned) [Compound A101b] the same measures were 1110 nM and 2360 nM.
Consider `CC[C@H]1CN(C(C)c2ccc3ncsc3n2)[C@H](CC)CN1c1cc(=O)n(C)n2cc(CC#N)nc12` (single isomer, unassigned) [Compound A57a], for which the IC50 in assay [1] is 6.8 nM; in assay [2], 7.9 nM.
`CC[C@H]1CN(C(C)c2ccc(OC(C)C)nc2)[C@H](CC)CN1c1cc(=O)n(C)n2cc(CC#N)nc12` (single isomer, unassigned) [Compound A45a]: the IC50 came out at 8 nM in assay [1] and 941 nM in assay [2].
For `[2H]C([2H])([2H])C(c1ccc2nc(C)sc2c1)N1C[C@H](CC)N(c2cc(=O)n(C([2H])([2H])[2H])n3cc(CC#N)nc23)C[C@H]1CC` (single isomer, unassigned) [Compound A95a] the same measures were 27 nM and 101 nM.
On to `CC[C@H]1CN(C(C)c2ccc3ncsc3c2)[C@H](CC)CN1c1cc(=O)n(C)n2cc(CC#N)nc12` (stereo partly drawn) [Compound A53, 2-(8-((2S,5R)-4-(1-(benzo[d]thiazol-6-yl)ethyl)-2,5-diethylpiperazin-1-yl)-5-methyl-6-oxo-5,6-dihydroimidazo[1,2-b]pyridazin-2-yl)acetonitrile], for which the IC50 in assay [1] was 6.5 nM; in assay [2] it was 24 nM.
For `CC[C@H]1CN(C(C)c2ccc(C3CC3)nc2)[C@H](CC)CN1c1c(C#N)c(=O)n(C)n2cc(CC#N)nc12` (single isomer, unassigned) [Compound A75b] the same measures were 1050 nM and 1300 nM.
For `CC[C@@H]1CN(c2cc(=O)n(C)n3cc(CC#N)nc23)[C@@H](CC)CN1Cc1ccc(OC(F)(F)F)cc1` [Compound A36, 2-(8-((2S,5R)-2,5-diethyl-4-(4-(trifluoromethoxy)benzyl)piperazin-1-yl)-5-methyl-6-oxo-5,6-dihydroimidazo[1,2-b]pyridazin-2-yl)acetonitrile] the same measures were 241 nM and 14 nM.
For `CC#CCc1cn2c(n1)c(N1C[C@@H](CC)N(C(C)c3ccc4nc(C)sc4c3F)C[C@@H]1CC)cc(=O)n2C` (single isomer, unassigned) [Compound A116b] the same measures were greater than 10000 nM and 708 nM.
For the compound `CC(C#N)c1cn2c(n1)c(N1C[C@@H](C)N(C(C)c3ccc4nccnc4c3)C[C@@H]1C)cc(=O)n2C` (stereo partly drawn) [Compound A6, 2-(8-((2S,5R)-2,5-dimethyl-4-(1-(quinoxalin-6-yl)ethyl)piperazin-1-yl)-5-methyl-6-oxo-5,6-dihydroimidazo[1,2-b]pyridazin-2-yl)propanenitrile], the IC50 in assay [1] and in assay [2] was greater than 10000 nM each time.
For `CC(c1ccc2nccnc2c1)N1C[C@H](C)N(c2cc(=O)n(C)n3cc(CC#N)nc23)C[C@H]1C` (single isomer, unassigned) [Compound A1a], the IC50 in assay [1] is 35 nM; in assay [2], 1270 nM.
For `CCC(c1ccc2nc(C)sc2n1)N1C[C@H](CC)N(c2cc(=O)n(C)n3cc(CC#N)nc23)C[C@H]1CC` (single isomer, unassigned) [Compound A99b] the same measures were 11 nM and 21 nM.
On to `CC[C@H]1CN(C(C)c2ccc(C(C)(C)C#N)nc2)[C@H](CC)CN1c1cc(=O)n(C)n2cc(CC#N)nc12` (stereo partly drawn) [Compound A40, 2-(5-(1-((2R,5S)-4-(2-(cyanomethyl)-5-methyl-6-oxo-5,6-dihydroimidazo[1,2-b]pyridazin-8-yl)-2,5-diethylpiperazin-1-yl)ethyl)pyridin-2-yl)-2-methylpropanenitrile], for which the results for the IC50 in assay [1] and in assay [2] were 124 nM and 297 nM, respectively.
For `CCC(c1ccc(C2CC2)nc1)N1C[C@H](CC)N(c2cc(=O)n(C)n3cc(CC#N)nc23)C[C@H]1CC` (single isomer, unassigned) [Compound A89b] the same measures were 1010 nM and 1520 nM.
For `CC[C@H]1CN(C(C)c2ccc(C(C)(C)O)nc2)[C@H](CC)CN1c1cc(=O)n(C)n2cc(CC#N)nc12` (stereo partly drawn) [Compound A41, 2-(8-((2S,5R)-2,5-diethyl-4-(1-(6-(2-hydroxypropan-2-yl)pyridin-3-yl)ethyl)piperazin-1-yl)-5-methyl-6-oxo-5,6-dihydroimidazo[1,2-b]pyridazin-2-yl)acetonitrile] the same measures were 844 nM and 1270 nM.
Turning to `CC[C@H]1CN(C(C)c2ccc3nccnc3c2)[C@H](CC)CN1c1cc(=O)n(C)n2cc(COC)nc12` (single isomer, unassigned) [Compound A8b], the IC50 in assay [1] turned out to be 1330 nM; in assay [2], 5080 nM.
On to `CC[C@H]1CN(C(C)c2ccc3nc(CC4CC4)sc3n2)[C@H](CC)CN1c1cc(=O)n(C)n2cc(CC#N)nc12` (single isomer, unassigned) [Compound A110a], for which the figures for the IC50 in assay [1] and in assay [2] were 1170 nM and 1070 nM, respectively.
As for `CC[C@H]1CN(C(C)c2ccc3nc(C)sc3n2)[C@H](CC)CN1c1c(C#N)c(=O)n(C)n2cc(CC#N)nc12` (single isomer, unassigned) [Compound A112b], the IC50 in assay [1] was determined as 118 nM; in assay [2] it was 60 nM.
The like results for `CC(c1ccc2c(c1)OC(C)(C)CO2)N1C[C@H](C)N(c2c(F)c(=O)n(C)n3cc(CC#N)nc23)C[C@H]1C` (mixture of isomers) [Compound A26, 2-(8-((2S,5R)-4-(1-(3,3-dimethyl-2,3-dihydrobenzo[b][1,4]dioxin-6-yl)ethyl)-2,5-dimethylpiperazin-1-yl)-7-fluoro-5-methyl-6-oxo-5,6-dihydroimidazo[1,2-b]pyridazin-2-yl)acetonitrile] were, in that order, 16 nM and 3090 nM.
With `CC#CCc1cn2c(n1)c(N1C[C@@H](CC)N(C(C)c3ccc4ncsc4c3F)C[C@@H]1CC)cc(=O)n2C` (single isomer, unassigned) [Compound A117a], the values for the IC50 in assay [1] and in assay [2] were 48 nM and 22 nM, respectively.
For the compound `CC[C@@H]1CN(c2c(C#N)c(=O)n(C)n3cc(CC#N)nc23)[C@@H](C)CN1C(C)c1ccc(C2CC2)nc1` (single isomer, unassigned) [Compound A74b], the values for the IC50 in assay [1] and in assay [2] were 1550 nM and 1430 nM, respectively.
As for `CC[C@H]1CN(C(C)c2ccc3nc(C)sc3c2F)[C@H](C)CN1c1cc(=O)n(C)n2cc(CC#N)nc12` (single isomer, unassigned) [Compound A119a], the IC50 in assay [1] was determined as 1460 nM; in assay [2] it was 2050 nM.
For `[2H]C([2H])([2H])n1c(=O)cc(N2C[C@@H](CC)N(C(C)c3ccc4nc(C)sc4c3)C[C@@H]2CC)c2nc(CC#N)cn21` (single isomer, unassigned) [Compound A94a] the same measures were 24 nM and 108 nM.
The like results for `CC[C@H]1CN(C(C)c2ccc3scnc3c2)[C@H](CC)CN1c1cc(=O)n(C)n2cc(CC#N)nc12` (single isomer, unassigned) [Compound A65a] were, in that order, 7 nM and 47 nM.
Take `CC[C@H]1CN(C(C)c2ccc(C3CC3)nc2F)[C@H](CC)CN1c1cc(=O)n(C)n2cc(CC#N)nc12` (single isomer, unassigned) [Compound A42b]: the IC50 in assay [1] was determined as 1250 nM; in assay [2], 1060 nM.
